Test results from paper PMC5727211, “Development of Erasin: a chromone-based STAT3 inhibitor which induces apoptosis in Erlotinib-resistant lung cancer cells” (Scientific Reports, 2017).

What was measured:
STAT1 SH2 domain = target: T1, STAT1 SH2 domain (Homo sapiens, UniProt P42224); experiment: FP-based competitive binding assay, STAT1 SH2 domain; details: mean ± s.d., three experiments
T1 sequence (P42224 1-750): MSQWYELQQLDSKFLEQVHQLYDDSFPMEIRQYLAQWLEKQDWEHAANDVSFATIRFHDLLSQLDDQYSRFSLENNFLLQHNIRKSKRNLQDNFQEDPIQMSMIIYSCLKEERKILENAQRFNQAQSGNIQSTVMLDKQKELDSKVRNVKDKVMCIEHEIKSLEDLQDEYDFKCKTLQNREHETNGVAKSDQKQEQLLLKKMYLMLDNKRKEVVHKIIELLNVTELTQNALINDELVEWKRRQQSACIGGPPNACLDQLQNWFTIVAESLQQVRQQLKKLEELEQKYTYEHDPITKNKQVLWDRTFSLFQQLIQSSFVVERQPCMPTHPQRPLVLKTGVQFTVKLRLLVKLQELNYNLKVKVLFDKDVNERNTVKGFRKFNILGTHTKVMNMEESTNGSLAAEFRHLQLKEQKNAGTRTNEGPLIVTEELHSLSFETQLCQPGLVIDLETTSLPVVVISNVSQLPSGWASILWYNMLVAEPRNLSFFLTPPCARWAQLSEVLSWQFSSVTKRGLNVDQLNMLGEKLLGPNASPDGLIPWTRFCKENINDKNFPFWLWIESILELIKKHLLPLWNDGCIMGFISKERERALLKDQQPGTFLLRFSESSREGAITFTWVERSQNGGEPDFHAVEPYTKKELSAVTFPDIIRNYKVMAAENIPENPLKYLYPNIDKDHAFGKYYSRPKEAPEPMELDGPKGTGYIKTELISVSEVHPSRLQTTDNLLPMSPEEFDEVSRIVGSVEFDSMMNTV
Procedure: (§1) The STAT family display a high degree of homology. […] Vilsmeyer-Haack formylation of 2-hydroxy acetophenones led to 3-formyl chromones, which were subsequently converted to the acyl hydrazones by reaction with hydrazides (Fig. 1). The target molecules were tested for their abilities to inhibit binding of fluorophore-labeled peptides to the SH2 domains of STAT1[24], STAT3[25], and STAT5b[26] in assays based on fluorescence polarization (FP). The more distantly related SH2 domain of the tyrosine kinase Lck served as additional specificity control[27],[28].
(§2) Assays were performed essentially as described. In brief, protein was incubated with the test compounds for 1 h at room temperature at the following protein concentrations: STAT1: 400 nM, STAT3: 210 nM, STAT5b: 300 nM, Lck SH2: 35 nM. Subsequently, the corresponding fluorophore-labeled peptide was added: STAT1: (5-carboxyfluorescein)-GpYDKPHVL-OH, derived from the interferon-γ receptor[24]; STAT3: (5-carboxyfluorescein)-GpYLPQTV-NH2, derived from the gp130 subunit of the IL-6 receptor[25]; STAT5b: (5-carboxyfluorescein)-GpYLVLDKW-OH, derived from the erythropoietin receptor[26]; Lck SH2: (5-carboxyfluorescein)-GpYEEIP-OH, derived from the middle-T antigen. After a further hour of incubation, fluorescence polarization was measured in a plate reader (Tecan Infinite F500). Apparent IC50 data shown in Tables 1, 2, and S1 and the inhibition curves shown in Fig. 2a correspond to this time point. The majority of the pipetting work was carried out using a Biomek FXp workstation (Beckman-Coulter). Buffer composition: 10 mM Tris pH 8.0, 50 mM NaCl, 1 mM EDTA, 1 mM dithiothreitol (DTT), 0.1% Nonidet P-40, and 2% DMSO.

MDA-MB-453 cells = experiment: Apoptosis assay (Annexin V/7-AAD flow cytometry), MDA-MB-453 cells; type: cell-based, human; details: 24 h
Procedure: MDA-MB-453 cells (3 × 10^5 cells per well), MDA-MB-231 cells (2 × 10^5 cells per well), parental HCC-827 or Erlotinib-resistant HCC-827 cells (both 2.5 × 10^5 cells per well) were seeded in 24-well tissue culture plates (Corning #3524) and treated with test compound or DMSO (final DMSO concentration: 0.2%) for 24 h. Afterwards, the cell culture supernatant from each well was collected. Cells were washed twice with warm PBS and incubated with Accutase (BD Bioscience #561527) at 37 °C for 10 min. The supernatants were then returned to each well to neutralize the Accutase solution and the cells were centrifuged at 3000 rpm, at 4 °C for 5 min. The cell pellets were washed twice with cold PBS and centrifuged again. PE Annexin V Apoptosis Detection Kit I (BD Bioscience, 559763) was used for cell staining. Cells were resuspended in 1 x binding buffer and incubated with PE Annexin V and 7-AAD at 4 °C for 30 min. Apoptosis was measured using an LSR II flow cytometer (BD Bioscience). Experiments were carried out in at least triplicate.

Lck SH2 = target: T2, Lck SH2 (Homo sapiens, UniProt P06239); experiment: FP-based competitive binding assay, Lck SH2 domain; details: at 80 µM
T2 construct: STAT1: 400 nM, STAT3: 210 nM, STAT5b: 300 nM, Lck SH2: 35 nM
Procedure: as §1, §2
Supplementary Figures and Table
No Structure app. IC50 [µM] or
Supplementary Table S1: Activities of test compounds in fluorescence polarization assays against the
SH2 domains of Lck. See the Supporting Methods for details. […]

T2 sequence (P06239 127-224 limits assumed): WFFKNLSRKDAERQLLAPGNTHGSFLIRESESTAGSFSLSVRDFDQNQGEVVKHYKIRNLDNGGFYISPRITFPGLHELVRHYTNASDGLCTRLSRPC

SMILES | inhibition at 80 µM (STAT1 SH2 domain; at 80 µM) [%] | increase in rate of apoptosis relative to DMSO control (MDA-MB-453 cells) | Lck inhibition (Lck SH2) | IC50 (STAT1 SH2 domain; 1 h with protein, then 1 h with peptide, read-out: STAT1 app. IC50) [µM]
CCC(C)(C)c1ccc2occ(/C=N/NC(=O)c3cccnc3)c(=O)c2c1 [Compound 9] | 36 ± 4 | did not significantly increase apoptosis | no inhibition | –
CC(C)(C)c1ccc2occ(/C=N/NC(=O)c3cccnc3)c(=O)c2c1 [Compound 8] | – | did not show an increase | no inhibition | 24 ± 4
